{
  "source": "patent US20130150363A1",
  "about": "“Method of Treating Cancer Using a cMET and AXL Inhibitor and an ErbB Inhibitor” (GlaxoSmithKline, priority 2008, published 2013)",
  "key": {"[1]": {"test_system": "AGS gastric carcinoma cells", "test": "Cell growth inhibition (CellTiter-Glo), AGS", "type": "cell-based", "details": "Homo sapiens, 72 h, gastric_AGS, 3 days", "from_the_text": "Esophageal carcinoma cell line OE33 was purchased from ECACC European Collection of Cell Cultures (UK). Breast cancer cell line JIMT-1 and gastric carcinoma cell line MKN-45 were purchased from Deutsche Sammlung von Mikroorganismen and Zellkulturen GmbH (Germany); KPL-4, a human breast cancer cell line was kindly provided by Prof. J Kurebayashi (Kawasaki Medical School, Kurashiki, Japan). […] The LICR-LON-HN5 head and neck carcinoma cell line (HN5) was a gift from the Institute of Cancer Research, Surrey, U.K. HN5C12 was developed by single-cell cloning of HN5 followed by exposure to increasing concentrations of lapatinib. […] Cell growth inhibition was determined via CellTiter-Glo cell viability assays. […] ATP levels were determined by adding Cell Titer Glo0 (Promega), incubating for 20 minutes then the luminescent signal was read on the SpectraMax M5 plate with a 0.5 second integration time. Cell growth was calculated relative to vehicle (DMSO) treated control wells. […] CI values were calculated with the interpolated IC50 values and the mutually non-exclusive equation derived by Chou and […](a)+Db/IC50(b)+(Da×Db)/(IC50(a)×IC50(b)) where IC50(a) is the IC50 of the inhibitor A; IC50(b) is the IC50 for the inhibitor B; […] […] EOHSA at each dose was calculated as the minimum difference in average % inhibition between the combination and each monotherapy, from the appropriate ANOVA contrast. […]"}, "BT474 cells": {"test_system": "BT474 cells", "test": "Cell apoptosis assays (Cell Death ELISA, Caspase-Glo 3/7), BT474", "type": "cell-based, human", "details": "BT474, presence of HGF (FIG. 4)", "method": "Cell apoptosis was measured by both a cell death ELISA method, which measures DNA fragmentation, a hallmark of apoptosis; and Caspase-Glo® 3/7 assay which detects the activity of caspase 3/7, one of the execution enzymes for apoptosis in cells.\nThe Cell Death ELISA^Plus kit (Roche, Mannheim, Germany) was used according to the manufacturer's instructions. Cells were seeded in 96-well plates at 10,000 per well. After 24 h, cells were dosed and grown for an additional 48 h in RPMI 1640 with 10% FBS in 5% CO2 at 37° C. Cytoplasmic fractions of control and treated cells were transferred into streptavidin-coated 96-well plates and incubated with biotinylated mouse antihistone antibody and peroxidase-conjugated mouse anti-DNA antibody at room temperature for 2 h. Absorbance was determined at 405-490 nm using a Spectra Max Gemini microplate reader (Molecular Devices, Sunnyvale, Calif.).\nThe Caspase-Glo® 3/7 assay (Promega) is a homogeneous luminescent assay that measures caspase-3 and -7 activities. Cells were seeded in 96-well plates at 5,000 per well. […] Caspase 3/7 activity was detected by adding luminogenic caspase-3/7 substrate, which contains the tetrapeptide sequence DEVD, in a reagent optimized for caspase activity, luciferase activity and cell lysis, according to the manufacturer's instructions."}},
  "data": [
    {"smiles": "C#Cc1cccc(Nc2ncnc3cc(OCCOC)c(OCCOC)cc23)c1", "note": "[Erlotinib, N-(3-ethynylphenyl)-6,7-bis{[2-(methyloxy)ethyl]oxy}-4-quinazolinamine]", "values": [
      {"measurement": "IC50", "setting": "[1]; +HGF (2 ng/mL)", "result": "> 10", "unit": "µM"},
      {"measurement": "IC50", "setting": "[1]; −HGF", "result": "> 10", "unit": "µM"}
    ]},
    {"smiles": "CS(=O)(=O)CCNCc1ccc(-c2ccc3ncnc(Nc4ccc(OCc5cccc(F)c5)c(Cl)c4)c3c2)o1", "note": "[Lapatinib, N-(3-chloro-4-{[(3-fluorophenyl)methyl]oxy}phenyl)-6-[5-({[2-(methylsulfonyl)ethyl]amino}methyl)-2-furanyl]-4-quinazolinamine]", "values": [
      {"measurement": "apoptosis induction (DNA fragmentation and caspase 3/7 activation)", "setting": "BT474 cells", "result": "induces apoptosis"}
    ]}
  ]
}
